Patent US9796700B2 (Celgene CAR LLC, priority 2013, dated 2017)
pIC50: −log10 of the molar value.

How the values were obtained:
[1] = target: MEK1 activated ERK1 (Homo sapiens (Human), UniProt P27361); assay: Omnia continuous-read kinase assay for potency against MEK1 activated ERK1; format: biochemical; details: MEK1 activated ERK1, WT, ATP at KM
Text: Omnia Assay Protocol for Potency Assessment Against MEK1 Activated ERK1:
The protocol below describes continuous-read kinase assays to measure potency of compounds against activated ERK1 enzyme. The mechanics of the assay platform are best described by the vendor (Invitrogen, Carlsbad, Calif.) on their website at the following URL: invitrogen.com/site/us/en/home.html.
Briefly, a 1.25× stock of ERK1 enzyme (14-439-K) from Millipore (Billerica, Mass.), 5×ATP (AS001A) and ST17-Sox conjugated peptide substrate (KNZ1171C) were prepared in 1× kinase reaction buffer consisting of 20 mM Tris, pH 7.5, 5 mM MgCl2, 1 mM EGTA, 5 mM β-glycerophosphate, 5% glycerol (10× stock, KB002A) and 0.2 mM DTT. 10 μL of ATP/ST17-sox peptide substrate mix was combined with 0.5 μL volume of 100% DMSO and serially diluted compounds were prepared in 100% DMSO in a Corning (#3574) 384-well, white, non-binding surface microtiter plate (Corning, N.Y.). Kinase reactions were started with the addition of 40 μL of ERK1 solution and monitored every 71 seconds for 30-240 minutes at λex360/λem485 in a Synergy plate reader from BioTek (Winooski, Vt.). At the conclusion of each assay, progress curves from each well were examined for linear reaction kinetics and fit statistics (R^2, 95% confidence interval, absolute sum of squares). Initial velocity (0 minutes to ˜30+ minutes) from each reaction was determined from the slope of a plot of relative fluorescence units vs time (minutes or seconds) and then plotted against inhibitor concentration to estimate ^AppIC50 from log [Inhibitor] vs Response, Variable Slope model in GraphPad Prism from GraphPad Software (San Diego, Calif.).
[Reagent] used in optimized protocol:
[ERK1]=4 nM, [ATP]=50 μM, [ST17-Sox]=10 μM (ATP ^appKM 48 μM)
The results of this assay show the degree of inhibition of ERK activity, which is a direct measurement of inhibition of ERK activity. Results from this assay are reported in Table A under the column “ERK1 Omnia WT ATP KM IC50 (nM).”

[2] = target: Erk1 (Homo sapiens (Human), UniProt P27361); assay: Protein Mass Modification Assay (intact protein MALDI); format: binding
Erk1, sequence (P27361 whole entry, looked up): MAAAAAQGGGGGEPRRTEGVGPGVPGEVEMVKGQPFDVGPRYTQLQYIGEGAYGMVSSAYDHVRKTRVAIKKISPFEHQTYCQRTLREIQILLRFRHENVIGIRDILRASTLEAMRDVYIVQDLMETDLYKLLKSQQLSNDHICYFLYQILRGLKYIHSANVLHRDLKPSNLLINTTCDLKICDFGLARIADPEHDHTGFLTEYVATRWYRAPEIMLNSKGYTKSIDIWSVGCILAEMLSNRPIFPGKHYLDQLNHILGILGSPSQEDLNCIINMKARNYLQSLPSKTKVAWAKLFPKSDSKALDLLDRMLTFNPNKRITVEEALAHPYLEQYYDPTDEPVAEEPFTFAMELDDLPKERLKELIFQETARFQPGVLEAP
In short: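 Percent covalent modification comes from the intact-protein MALDI centroid mass shift, treated versus control, divided by compound MW. Before analysis, human Erk1 was exposed to compound at 10-fold excess over protein for 60 min at room temperature.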

MEK1 activated ERK1, sequence (P27361 whole entry): as the sequence (P27361 whole entry, looked up) above

SMILES | pIC50 [1] | ERK1 Mass Mod (%) [2]
C=CC(=O)Nc1ccccc1Nc1nc(N[C@@H]2CCC[C@H](C(N)=O)C2)ncc1Cl [Compound I-119, (1S,3R)-3-((4-((2-acrylamidophenyl)amino)-5-chloropyrimidin-2-yl)amino)cyclohexanecarboxamide] | > 7.00 | E (provided a mass modification of ≧70%)
C=CC(=O)Nc1ccccc1Nc1nc(Nc2cc(OC)nc(N3CCN(S(C)(=O)=O)CC3)c2)ncc1C(F)(F)F [Compound I-290, N-(2-((2-((2-Methoxy-6-(4-(methylsulfonyl)piperazin-1-yl)pyridin-4-yl)amino)-5-(trifluoromethyl)pyrimidin-4-yl)amino)phenyl)acrylamide] | < 6.00 | E (provided a mass modification of ≧70%)
C=CC(=O)Nc1cc(C)ccc1Nc1nc(N[C@@H]2CCN(S(=O)(=O)C=C)C2)ncc1C(F)(F)F [Compound I-280, (R)—N-(5-Methyl-2-((5-(trifluoromethyl)-2-((1-(vinylsulfonyl)pyrrolidin-3-yl)amino)pyrimidin-4-yl)amino)phenyl)acrylamide] | < 6.00 | E (provided a mass modification of ≧70%)
C=CC(=O)Nc1ccccc1Nc1nc(Nc2ccc(NC(=O)OC)cc2OC)ncc1Cl [Compound I-184, methyl (4-((4-((2-acrylamidophenyl)amino)-5-chloropyrimidin-2-yl)amino)-3-methoxyphenyl)carbamate] | < 6.00 | E (provided a mass modification of ≧70%)
C=CC(=O)Nc1cc(C)ccc1Nc1nc(Nc2cc(OC)nc(N3CCC(O)CC3)c2)ncc1C(F)(F)F [Compound I-332, N-(2-((2-((2-(4-hydroxypiperidin-1-yl)-6-methoxypyridin-4-yl)amino)-5-(trifluoromethyl)pyrimidin-4-yl)amino)-5-methylphenyl)acrylamide] | < 6.00 | E (provided a mass modification of ≧70%)
C=CC(=O)Nc1ccccc1Nc1nc(N[C@H]2CCC[C@@H](C(N)=O)C2)ncc1Cl [Compound I-120, (1R,3S)-3-((4-((2-acrylamidophenyl)amino)-5-chloropyrimidin-2-yl)amino)cyclohexanecarboxamide] | > 7.00 | E (provided a mass modification of ≧70%)
C=CC(=O)Nc1cc(OC)ccc1Nc1nc(Nc2ccc(N3CCN(C(=O)OC(C)(C)C)CC3)cc2OC)ncc1Cl [Compound I-151, tert-butyl 4-(4-((4-((2-acrylamido-4-methoxyphenyl)amino)-5-chloropyrimidin-2-yl)amino)-3-methoxyphenyl)piperazine-1-carboxylate] | < 6.00 | F (provided a mass modification of 31-69%)
C#CCOc1cc(C)c(Nc2ncc(Cl)c(Nc3ccccc3NC(=O)C=C)n2)cc1C(N)=O [Compound I-228, 5-((4-((2-acrylamidophenyl)amino)-5-chloropyrimidin-2-yl)amino)-4-methyl-2-(prop-2-yn-1-yloxy)benzamide] | > 7.00 | G (proived a mass modification ≦30%)
C=C(C)S(=O)(=O)Nc1cc(C)ccc1Nc1nc(N[C@H]2CCCN(C(=O)CO)C2)ncc1C(F)(F)F [Compound I-47, (S)—N-(2-((2-((1-(2-Hydroxyacetyl)piperidin-3-yl)amino)-5-(trifluoromethyl)pyrimidin-4-yl)amino)-5-methylphenyl)prop-1-ene-2-sulfonamide] | > 7.00 | G (proived a mass modification ≦30%)
C=CC(=O)Nc1cc(C)ccc1Nc1nc(Nc2cc(OC)nc(N3CC(O)C3)c2)ncc1C(F)(F)F [Compound I-328, N-(2-((2-((2-(3-hydroxyazetidin-1-yl)-6-methoxypyridin-4-yl)amino)-5-(trifluoromethyl)pyrimidin-4-yl)amino)-5-methylphenyl)acrylamide] | > 7.00 | E (provided a mass modification of ≧70%)
C=CC(=O)Nc1ccccc1Nc1nc(Nc2cc(C(N)=O)ccc2C#N)ncc1C(F)(F)F [Compound I-71, 3-((4-((2-Acrylamidophenyl)amino)-5-(trifluoromethyl)pyrimidin-2-yl)amino)-4-cyanobenzamide] | > 7.00 | E (provided a mass modification of ≧70%)
C=CC(=O)Nc1ccccc1Nc1nc(N[C@H]2CCCN(C(=O)OC)C2)ncc1C(F)(F)F [Compound I-17, (S)-Methyl 3-((4-((2-acrylamidophenyl)amino)-5-(trifluoromethyl)pyrimidin-2-yl)amino) piperidine-1-carboxylate] | > 7.00 | F (provided a mass modification of 31-69%)
C=CC(=O)Nc1ccccc1CNc1nc(N[C@H]2CCCN(C(=O)CO)C2)ncc1C(F)(F)F [Compound I-45, (S)—N-(2-(((2-((1-(2-Hydroxyacetyl)piperidin-3-yl)amino)-5-(trifluoromethyl)pyrimidin-4-yl)amino)methyl)phenyl)acrylamide] | < 6.00 | G (proived a mass modification ≦30%)
C=CC(=O)Nc1ccccc1Nc1nc(N[C@H]2CCCN(C(=O)[C@@H](C)O)C2)ncc1Cl [Compound I-134, N-(2-((5-chloro-2-(((S)-1-((R)-2-hydroxypropanoyl)piperidin-3-yl)amino)pyrimidin-4-yl)amino)phenyl)acrylamide] | > 7.00 | E (provided a mass modification of ≧70%)
C=C(C)S(=O)(=O)Nc1cc(C)ccc1Nc1nc(Nc2cc(C(C)=O)ccc2C)ncc1C(F)(F)F [Compound I-98, N-(2-((2-((5-acetyl-2-methylphenyl)amino)-5-(trifluoromethyl)pyrimidin-4-yl)amino)-5-methylphenyl)prop-1-ene-2-sulfonamide] | > 7.00 | E (provided a mass modification of ≧70%)
C=CC(=O)Nc1ccccc1Nc1nc(Nc2ccc(N3CCN(C(C)=O)CC3)cc2OC)ncc1F [Compound I-153, N-(2-((2-((4-(4-acetylpiperazin-1-yl)-2-methoxyphenyl)amino)-5-fluoropyrimidin-4-yl)amino)phenyl)acrylamide] | < 6.00 | F (provided a mass modification of 31-69%)
C=C(C)S(=O)(=O)Nc1cc(F)ccc1Nc1nc(N[C@H]2CCCN(C(=O)CO)C2)ncc1C(F)(F)F [Compound I-54, (S)—N-(5-Fluoro-2-((2-((1-(2-hydroxyacetyl)piperidin-3-yl)amino)-5-(trifluoromethyl)pyrimidin-4-yl)amino)phenyl)prop-1-ene-2-sulfonamide] | > 7.00 | G (proived a mass modification ≦30%)
C=C(C)C(=O)Nc1ccccc1Nc1nc(Nc2cc(C(N)=O)ccc2C)ncc1Cl [Compound I-217, 3-((5-chloro-4-((2-methacrylamidophenyl)amino)pyrimidin-2-yl)amino)-4-methylbenzamide] | < 6.00 | G (proived a mass modification ≦30%)
C=CC(=O)Nc1ccccc1Oc1nc(Nc2ccc(N3CCN(C(C)=O)CC3)cc2OC)ncc1C(N)=O [Compound I-258, 2-((4-(4-acetylpiperazin-1-yl)-2-methoxyphenyl)amino)-4-(2-acrylamidophenoxy)pyrimidine-5-carboxamide] | > 7.00 | E (provided a mass modification of ≧70%)
C=CC(=O)Nc1ccccc1Nc1nc(N[C@@H]2CCN(C(=O)OC)C2)ncc1C(F)(F)F [Compound I-61, (R)-Methyl 3-((4-((2-Acrylamidophenyl)amino)-5-(trifluoromethyl)pyrimidin-2-yl)amino)pyrrolidine-1-carboxylate] | < 6.00 | E (provided a mass modification of ≧70%)
CCC(=O)Nc1ccccc1Nc1nc(N[C@H]2CCCN(C(C)=O)C2)ncc1C(F)(F)F [Compound I-317, (S)—N-(2-((2-((1-acetylpiperidin-3-yl)amino)-5-(trifluoromethyl)pyrimidin-4-yl)amino)phenyl)propionamide] | > 7.00 | G (proived a mass modification ≦30%)
C=CC(=O)Nc1ccccc1Nc1nc(N[C@H]2CCCN(C(C)=O)C2)ncc1C(F)(F)F [Compound I-10, (S)—N-(2-(2-(1-acetylpiperidin-3-ylamino)-5-(trifluoromethyl)pyrimidin-4-ylamino)phenyl)acrylamide] | > 7.00 | E (provided a mass modification of ≧70%)
C=CC(=O)Nc1cc(F)ccc1Nc1nc(Nc2ccc(F)cc2C#N)ncc1Cl [Compound I-221, N-(2-((5-chloro-2-((2-cyano-4-fluorophenyl)amino)pyrimidin-4-yl)amino)-5-fluorophenyl)acrylamide] | > 7.00 | E (provided a mass modification of ≧70%)
